Laboratory results as given in patent US20110243854A1, “Methods and systems for identifying modulators of longevity” (The Regents of the University of California, priority 2007, published 2011).
Entries after “also recorded” stand apart in the source; their conditions may differ.

Experiments:
wild-type flies = details: cited from earlier work
[1] = tested on: flies with reduced life span due to Cu/ZnSOD and MnSOD deficiency; details: Cu/ZnSOD and MnSOD deficient flies; cited from earlier work
NF1^P1/P2 mutants = experiment: Locomotive (up-climbing) recovery after heat stress, antioxidant-fed NF1 mutants; format: in vivo, Drosophila melanogaster; details: 20 min 37° C. heat stress
Protocol: Locomotive assays were performed on 3- to 4-d-old flies. Flies were placed in 90 mm×20 mm vertical tubes containing a small quantity of cornmeal food at the bottom with a line drawn horizontally 10 mm from the base. Every 5 min, the vials were tapped until the flies were at the bottom of the vials. Then, flies were given 15 s to climb (up-climbing behavior) toward the top of the vial, and the numbers of flies above the 10 mm line were recorded. The locomotive index is the percentage of flies that climbed up after 15 s. After 30 min of baseline recording at 22° C., flies were subjected to a brief 20-min heat treatment at 37° C. and were then returned to 22° C. for recovery. The locomotive index was then plotted against time over the course of the experiment to determine the recovery time (τ).
(§1) MnTBAP (Oxis) and MnTDEIP (Aeolus Pharmaceuticals) were dissolved in PBS (Mediatech) before further dilution with cornmeal food to make desired concentration. Red food dye (six drops per 500 ml food) was added to the food to ensure homogeneity.

NF1^P1/P2 flies = experiment: Longevity assay, NF1 mutant flies fed catalytic antioxidants; format: in vivo, Drosophila melanogaster; details: for increase in survivorship: NF1^P1/P2 flies fed the antioxidant; for effect on life span of NF1 mutant flies (in words): feeding 10 μM, NF1^P1/P2 males and females
Protocol: Life spans were determined at 25° C. and 50% humidity with a 12-h light/dark cycle. Male and female flies were collected under brief CO2 anesthesia 2 to 3 d after eclosion, allowing time for mating. The number of deceased flies was recorded every 2 to 3 d, when flies were transferred to fresh cornmeal agar medium. Both Statview 5.0 and Prism GraphPad software were used for survival data and mortality curves analysis. Survival data were analyzed by Kaplan-Meier analysis in Statview 5.0. The log-rank (Mantel-Cox) test results are presented. Censored data were recorded and analyzed with GraphPad software.
as §1

[2] = tested on: mitochondrial ROS production; details: cited from earlier work
w^1118 flies = experiment: Longevity assay, w^1118 flies fed cAMP analogs; format: in vivo, Drosophila melanogaster
Protocol: Male and female flies were collected under brief CO2 anesthesia 2 to 3 d after eclosion, allowing time for mating. The number of deceased flies was recorded every 2 to 3 d, when flies were transferred to fresh cornmeal agar medium. Both Statview 5.0 and Prism GraphPad software were used for survival data and mortality curves analysis. Survival data were analyzed by Kaplan-Meier analysis in Statview 5.0. The log-rank (Mantel-Cox) test results are presented. […] The stock solutions were subsequently diluted into food to make the specific concentrations of 1 μM and 10 μM. Red food dye (six drops per 500 ml food) was added to the supplemented food to insure homogeneity.

Molecule: [Cl-].[Mn+3].[O-]c1ccccc1C=NCCN=Cc1ccccc1[O-] [EUK-8, manganese N,N′-bis(salicyidene) ethylenediamine chloride]
- effect on life span (in words) (wild-type flies): shortened their life spans
- effect on life span (in words) [1]: partially restored normal life span

Molecule: COC1=C(OC)C(=O)C(CCCCCCCCCC[P+](c2ccccc2)(c2ccccc2)c2ccccc2)=C(C)C1=O [MitoQ]
- effect on life span (in words) (wild-type flies): shortened their life spans
- effect on life span (in words) [1]: partially restored normal life span

Molecule: O=C(O)c1ccc(-c2c3nc(c(-c4ccc(C(=O)O)cc4)c4ccc([n-]4)c(-c4ccc(C(=O)O)cc4)c4nc(c(-c5ccc(C(=O)O)cc5)c5ccc2[n-]5)C=C4)C=C3)cc1.[Mn+3] [MnTBAP, Mn(III)tetrakis(4-benzoic acid) porphyrin]
- recovery of locomotive performance after heat stress (in words) (NF1^P1/P2 mutants): enhanced the recovery rate of locomotive performance; also recorded: rescued delayed heat stress recovery time
- increase in survivorship (NF1^P1/P2 flies): approximately 50%
- effect on life span of NF1 mutant flies (in words) (NF1^P1/P2 flies): restores normal life span; also recorded: extended
- mitochondrial ROS production and oxidative damage (in words) [2]: reduce mitochondrial ROS production and oxidative damage

Molecule: CCCC(=O)Nc1ncnc2c1ncn2[C@@H]1O[C@@H]2COP(=O)(O)O[C@H]2[C@H]1OC(=O)CCC [db-cAMP, dibutyryl-cAMP]
- increase in median life span (w^1118 flies; adult males fed 1 μM or 10 μM): 30%
- increase in life span (w^1118 flies; females fed 1 μM): 60%
- increase in life span (w^1118 flies; females fed 10 μM): > 100%
- effect on life span of w^1118 flies (in words) (w^1118 flies; male and female w^1118 flies, 1 μM and 10 μM in food): extends life spans

Molecule: tetrakis(1,3-diethyl imidazolium-2-yl) meso-substituted manganoporphyrin [MnTDEIP]
- recovery of locomotive performance after heat stress (in words) (NF1^P1/P2 mutants): enhanced the recovery rate of locomotive performance; also recorded: rescued delayed heat stress recovery time
- increase in survivorship (NF1^P1/P2 flies): approximately 50%
- effect on life span of NF1 mutant flies (in words) (NF1^P1/P2 flies): extended
